Test results reported in EP1054888B1 (priority 1998, dated 1999).
Values after ≈ are worked out from the molar mass of the structure shown.

Key:
Experiment in all cases: microbe, parasite or virus in culture
Type in all cases: cell-based
Rhizoctonia solani = conditions: read-out: MIC (Minimum Inhibitory Concentration) RHIZSO
Alternaria solani = conditions: read-out: MIC (Minimum Inhibitory Concentration) ALTESO
[1] = tested on: Magnaporthe grisea f. sp. oryzae; conditions: Pyricularia oryzae, read-out: MIC (Minimum Inhibitory Concentration) PYRIOR, Table II; total inhibition of mycelial growth, V8 juice nutrient solution, 6-12 days at 18-25°C, visual inspection
Leptosphaeria nodorum = conditions: Parastagonospora nodorum, read-out: MIC (Minimum Inhibitory Concentration) LEPTNO
Phytophthora infestans = conditions: read-out: MIC (Minimum Inhibitory Concentration) PHYTIN
Botrytis cinerea = conditions: read-out: MIC (Minimum Inhibitory Concentration) BOTRCI

Compound | MIC (Rhizoctonia solani) [µg/mL] | MIC (Alternaria solani) [µg/mL] | MIC [1] [µg/mL] | MIC (Leptosphaeria nodorum) [µg/mL] | MIC (Phytophthora infestans) [µg/mL] | MIC (Botrytis cinerea) [µg/mL]
CN1C=C(c2c(-c3c(F)cc(F)cc3F)c(Cl)nc3ncnn23)CCC1 [Example 6, 5-chloro-7-(N-methyl-2,3-dehydropiperid-3-yl)-6-(2,4,6-trifluorophenyl)-1,2,4-triazolo[1,5a]pyrimidine] | > 100 | 3.13 (≈ 8.24 µM) | 0.78 (≈ 2.05 µM) | 25 (≈ 65.8 µM) | > 100 | 25 (≈ 65.8 µM)
COc1cc(F)c(-c2c(Cl)nc3ncnn3c2C2CCCCC2)c(F)c1 [Example 68] | 0.78 (≈ 2.06 µM) | < 0.05 | < 0.05 | 0.39 (≈ 1.03 µM) | > 100 | < 0.05
COc1cc(F)c(-c2c(OC)nc3ncnn3c2C2CCCCC2)c(F)c1 [Example 69] | 3.13 (≈ 8.36 µM) | < 0.05 | < 0.05 | 1.56 (≈ 4.17 µM) | > 100 | < 0.05
Fc1cc(F)c(-c2c(Cl)nc3ncnn3c2[C@H]2CC[C@@H](F)CC2)c(F)c1 [Example 71] | 6.25 (≈ 16.2 µM) | < 0.05 | < 0.05 | 0.78 (≈ 2.03 µM) | > 100 | 0.2 (≈ 0.52 µM)
COc1cc(F)c(-c2c(Cl)nc3ncnn3c2C2CC=CCC2)c(F)c1 (stereo not drawn) [Example 74] | 0.39 (≈ 1.04 µM) | < 0.05 | < 0.05 | 0.78 (≈ 2.07 µM) | > 100 | < 0.05
COc1nc2ncnn2c([C@H]2CC[C@@H](F)CC2)c1-c1c(F)cc(F)cc1F [Example 75] | > 100 | 1.56 (≈ 4.1 µM) | 0.39 (≈ 1.03 µM) | 12.5 (≈ 32.9 µM) | > 100 | 6.25 (≈ 16.4 µM)
CC(=O)OC1CCC(c2c(-c3c(F)cc(F)cc3F)c(Cl)nc3ncnn23)CC1 (stereo not drawn) [Example 84] | 100 (≈ 235 µM) | 3.13 (≈ 7.37 µM) | 3.13 (≈ 7.37 µM) | 12.5 (≈ 29.4 µM) | > 100 | 12.5 (≈ 29.4 µM)
COc1cc(F)c(-c2c(Cl)nc3ncnn3c2C2CCC(OC(C)=O)CC2)c(F)c1 (stereo not drawn) [Example 85] | > 100 | 0.78 (≈ 1.79 µM) | 0.78 (≈ 1.79 µM) | 6.25 (≈ 14.3 µM) | 25 (≈ 57.2 µM) | 1.56 (≈ 3.57 µM)
COc1cc(F)c(-c2c(Cl)nc3ncnn3c2[C@H]2CC[C@@H](F)CC2)c(F)c1 [Example 87] | > 100 | < 0.05 | < 0.05 | 0.39 (≈ 0.983 µM) | > 100 | < 0.05
COc1cc(F)c(-c2c(OC)nc3ncnn3c2[C@H]2CC[C@@H](F)CC2)c(F)c1 [Example 89] | 12.5 (≈ 31.9 µM) | < 0.05 | < 0.05 | 6.25 (≈ 15.9 µM) | > 100 | 1.56 (≈ 3.98 µM)
CCCc1c(-c2c(F)cc(OC)cc2F)c(Cl)nc2ncnn12 [Example 93] | 0.39 (≈ 1.15 µM) | 0.2 (≈ 0.59 µM) | < 0.05 | 6.25 (≈ 18.5 µM) | 100 (≈ 295 µM) | 0.2 (≈ 0.59 µM)
COc1cc(F)c(-c2c(Cl)nc3ncnn3c2CC(C)C)c(F)c1 [Example 94] | 0.2 (≈ 0.567 µM) | 0.1 (≈ 0.283 µM) | < 0.05 | 3.13 (≈ 8.87 µM) | > 100 | 0.2 (≈ 0.567 µM)
COc1cc(F)c(-c2c(Cl)nc3ncnn3c2C2CCCO2)c(F)c1 (stereo not drawn) [Example 95] | 3.13 (≈ 8.53 µM) | 0.2 (≈ 0.545 µM) | 0.1 (≈ 0.273 µM) | 3.13 (≈ 8.53 µM) | 100 (≈ 273 µM) | 0.78 (≈ 2.13 µM)
CCCCc1c(-c2c(F)cc(OC)cc2F)c(Cl)nc2ncnn12 [Example 96] | 0.78 (≈ 2.21 µM) | < 0.05 | < 0.05 | 3.13 (≈ 8.87 µM) | > 100 | 0.1 (≈ 0.283 µM)
COc1cc(F)c(-c2c(Cl)nc3ncnn3c2C2CCCC2)c(F)c1 [Example 97] | 0.39 (≈ 1.07 µM) | < 0.05 | 0.1 (≈ 0.274 µM) | 6.25 (≈ 17.1 µM) | > 100 | 0.2 (≈ 0.548 µM)
CCCc1c(-c2c(F)cc(OC)cc2F)c(OC)nc2ncnn12 [Example 98] | 1.56 (≈ 4.67 µM) | 1.56 (≈ 4.67 µM) | 0.2 (≈ 0.598 µM) | 100 (≈ 299 µM) | > 100 | 3.13 (≈ 9.36 µM)
